Consider 22 compounds from US20230219965A1 (KSQ Therapeutics, Inc., priority 2020, published 2023).

As usually defined, the IC50 is the concentration that gives 50% inhibition.

Each structure is given as a SMILES string. Bounds are passed on as bounds.

The target of this experiment is USP1/UAF1 enzyme (Homo sapiens, UniProt O94782). Nature of the experiment: USP1/UAF1 deubiquitination assay (ubiquitin-rhodamine 110 substrate). Format: biochemical. Conditions: read-out: USP1 IC50 (Ub-Rho). Summed up:
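0.05 nM USP1/UAF1 was preincubated 10 min with compounds (dose response from 10 μM) in 50 mM Tris-HCl pH 7.8, 0.5 mM EDTA, 0.01% BSA, 1 mM DTT, 0.01% Tween-20. 150 nM ubiquitin-rhodamine 110 started the reaction, read kinetically 30 min at Ex480/Em540; IC50 by four-parameter fit versus no-enzyme and DMSO controls.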

Sequence of USP1/UAF1 enzyme (O94782 whole entry): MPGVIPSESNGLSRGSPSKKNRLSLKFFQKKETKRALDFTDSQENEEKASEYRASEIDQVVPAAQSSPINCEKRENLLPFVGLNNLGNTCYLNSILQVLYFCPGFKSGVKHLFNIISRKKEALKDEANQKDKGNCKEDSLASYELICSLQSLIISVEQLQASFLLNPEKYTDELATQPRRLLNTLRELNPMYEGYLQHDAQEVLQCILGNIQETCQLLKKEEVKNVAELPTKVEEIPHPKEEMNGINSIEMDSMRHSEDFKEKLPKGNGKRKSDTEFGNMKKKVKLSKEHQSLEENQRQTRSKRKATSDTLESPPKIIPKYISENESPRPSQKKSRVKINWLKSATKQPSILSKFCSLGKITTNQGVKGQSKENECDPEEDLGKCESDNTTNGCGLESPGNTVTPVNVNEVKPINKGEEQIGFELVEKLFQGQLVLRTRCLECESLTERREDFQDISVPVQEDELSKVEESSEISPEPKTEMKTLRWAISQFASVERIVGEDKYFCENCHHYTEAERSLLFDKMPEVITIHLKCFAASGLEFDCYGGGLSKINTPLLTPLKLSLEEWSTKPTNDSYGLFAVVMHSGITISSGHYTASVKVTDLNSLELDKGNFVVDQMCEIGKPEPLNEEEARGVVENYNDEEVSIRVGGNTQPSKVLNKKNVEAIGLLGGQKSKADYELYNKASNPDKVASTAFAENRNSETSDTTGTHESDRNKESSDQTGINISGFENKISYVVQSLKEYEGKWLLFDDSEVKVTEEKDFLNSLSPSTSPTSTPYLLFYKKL
Sequence of USP1/UAF1 enzyme (Q8TAF3 whole entry partner): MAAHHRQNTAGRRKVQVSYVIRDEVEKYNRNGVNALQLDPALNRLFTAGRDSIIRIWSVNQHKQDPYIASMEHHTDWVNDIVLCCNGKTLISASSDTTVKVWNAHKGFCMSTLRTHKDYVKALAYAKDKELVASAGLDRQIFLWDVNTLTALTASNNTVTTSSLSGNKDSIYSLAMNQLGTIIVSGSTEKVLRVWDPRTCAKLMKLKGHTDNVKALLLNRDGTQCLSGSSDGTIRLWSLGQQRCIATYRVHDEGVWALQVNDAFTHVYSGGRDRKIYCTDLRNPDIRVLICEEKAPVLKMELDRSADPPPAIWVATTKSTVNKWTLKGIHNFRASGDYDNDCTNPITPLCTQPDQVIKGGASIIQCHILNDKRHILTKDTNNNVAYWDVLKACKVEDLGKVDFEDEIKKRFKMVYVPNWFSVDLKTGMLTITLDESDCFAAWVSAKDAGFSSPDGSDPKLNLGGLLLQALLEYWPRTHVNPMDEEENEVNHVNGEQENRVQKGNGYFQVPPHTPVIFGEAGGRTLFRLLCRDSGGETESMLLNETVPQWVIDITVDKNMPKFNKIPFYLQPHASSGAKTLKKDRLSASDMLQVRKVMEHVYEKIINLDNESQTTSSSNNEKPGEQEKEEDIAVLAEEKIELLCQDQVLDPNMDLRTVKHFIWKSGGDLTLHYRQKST

Take `Cn1cc(C(F)(F)F)nc1-c1ccc(CN2C(=O)CCn3nc(-c4c(OC(F)F)ncnc4C4CC4)nc32)cc1` [Example 368, 2-(4-cyclopropyl-6-(difluoromethoxy)pyrimidin-5-yl)-4-(4-(1-methyl-4-(trifluoromethyl)-1H-imidazol-2-yl)benzyl)-6,7-dihydro-[1,2,4]triazolo[1,5-a]pyrimidin-5(4H)-one]: the IC50 was below 100 nM.

Regarding `CC(C)n1cc(C(F)(F)F)nc1-c1ccc(CN2C(=O)CCn3nc(-c4c(OC(F)F)ncnc4C4CC4)nc32)cc1` [Example 369, 2-(4-cyclopropyl-6-(difluoromethoxy)pyrimidin-5-yl)-4-(4-(1-isopropyl-4-(trifluoromethyl)-1H-imidazol-2-yl)benzyl)-6,7-dihydro-[1,2,4]triazolo[1,5-a]pyrimidin-5(4H)-one], the IC50 is below 100 nM. Regarding `COc1ncnc(C2CC2)c1-c1nc2n(n1)CCC(=O)N2C(C)c1ccc(-n2nc(C(F)(F)F)cc2OC)cc1` (stereo not shown) [Example 372, 2-(4-cyclopropyl-6-methoxypyrimidin-5-yl)-4-(1-(4-(5-methoxy-3-(trifluoromethyl)-1H-pyrazol-1-yl)phenyl)ethyl)-6,7-dihydro-[1,2,4]triazolo[1,5-a]pyrimidin-5(4H)-one], the concentration for half-maximal inhibition (IC50) is below 100 nM. To `CCn1cc(C(F)(F)F)nc1-c1ccc(CN2C(=O)CCn3nc(-c4c(C5CC5)ccnc4OC(F)F)nc32)cc1` [Example 373, 2-(4-cyclopropyl-2-(difluoromethoxy)pyridin-3-yl)-4-(4-(1-ethyl-4-(trifluoromethyl)-1H-imidazol-2-yl)benzyl)-6,7-dihydro-[1,2,4]triazolo[1,5-a]pyrimidin-5(4H)-one] belongs 100 to 500 nM. To `[2H]C([2H])([2H])C([2H])(n1cc(C(F)(F)F)nc1-c1ccc(CN2C(=O)CCn3nc(-c4c(OC(F)F)ncnc4C4CC4)nc32)cc1)C([2H])([2H])[2H]` [Example 374, 2-(4-cyclopropyl-6-(difluoromethoxy)pyrimidin-5-yl)-4-(4-(1-(propan-2-yl-d7)-4-(trifluoromethyl)-1H-imidazol-2-yl)benzyl)-6,7-dihydro-[1,2,4]triazolo[1,5-a]pyrimidin-5(4H)-one] belongs below 100 nM.

As for `[2H]C([2H])([2H])C([2H])([2H])n1cc(C(F)(F)F)nc1-c1ccc(CN2C(=O)CCn3nc(-c4c(OC(F)F)ncnc4C4CC4)nc32)cc1` [Example 375, 2-(4-cyclopropyl-6-(difluoromethoxy)pyrimidin-5-yl)-4-(4-(1-(ethyl-d5)-4-(trifluoromethyl)-1H-imidazol-2-yl)benzyl)-6,7-dihydro-[1,2,4]triazolo[1,5-a]pyrimidin-5(4H)-one], the IC50 is below 100 nM. To `CCn1cc(C(F)(F)F)nc1-c1ccc(CN2C(=O)CCn3nc(-c4c(OC)ncnc4OC(F)F)nc32)cc1` [Example 376, 2-(4-(difluoromethoxy)-6-methoxypyrimidin-5-yl)-4-(4-(1-ethyl-4-(trifluoromethyl)-1H-imidazol-2-yl)benzyl)-6,7-dihydro-[1,2,4]triazolo[1,5-a]pyrimidin-5(4H)-one] belongs below 100 nM. For the compound `Cn1cc(C(F)(F)F)nc1-c1ccc(CN2C(=O)CCn3nc(-c4c(OC(F)F)ncnc4C4CC4)nc32)cc1F` [Example 377, 2-(4-cyclopropyl-6-(difluoromethoxy)pyrimidin-5-yl)-4-(3-fluoro-4-(1-methyl-4-(trifluoromethyl)-1H-imidazol-2-yl)benzyl)-6,7-dihydro-[1,2,4]triazolo[1,5-a]pyrimidin-5(4H)-one], the IC50 is below 100 nM. To `COc1ncnc(C2CC2)c1-c1nc2n(n1)CCC(=O)N2C(C)c1ccc(-c2nc(C(F)(F)F)cn2C)cc1` (stereo not shown) [Example 378, 2-(4-cyclopropyl-6-methoxypyrimidin-5-yl)-4-(1-(4-(1-methyl-4-(trifluoromethyl)-1H-imidazol-2-yl)phenyl)ethyl)-6,7-dihydro-[1,2,4]triazolo[1,5-a]pyrimidin-5(4H)-one] belongs below 100 nM; to `CCn1cc(C(F)(F)F)nc1-c1ccc(CN2C(=O)[C@@H](C)Cn3nc(-c4c(OC)ncnc4C4CC4)nc32)cc1` [Example 381, (S)-2-(4-cyclopropyl-6-methoxypyrimidin-5-yl)-4-(4-(1-ethyl-4-(trifluoromethyl)-1H-imidazol-2-yl)benzyl)-6-methyl-6,7-dihydro-[1,2,4]triazolo[1,5-a]pyrimidin-5(4H)-one], below 100 nM. As for `CCn1cc(C(F)(F)F)nc1-c1ccc(CN2C(=O)[C@H](C)Cn3nc(-c4c(OC)ncnc4C4CC4)nc32)cc1` [Example 382, (R)-2-(4-cyclopropyl-6-methoxypyrimidin-5-yl)-4-(4-(1-ethyl-4-(trifluoromethyl)-1H-imidazol-2-yl)benzyl)-6-methyl-6,7-dihydro-[1,2,4]triazolo[1,5-a]pyrimidin-5(4H)-one], the IC50 was below 100 nM. Take `COc1ncnc(C2CC2)c1-c1nc2n(n1)CC(C)C(=O)N2Cc1ccc(-c2nc(C(F)(F)F)cn2C(C)CF)cc1` (stereo not shown) [Example 383, 2-(4-cyclopropyl-6-methoxypyrimidin-5-yl)-4-(4-(1-(1-fluoropropan-2-yl)-4-(trifluoromethyl)-1H-imidazol-2-yl)benzyl)-6-methyl-6,7-dihydro-[1,2,4]triazolo[1,5-a]pyrimidin-5(4H)-one]: the IC50 was in the range of 100 to 500 nM.

As to `CCn1cc(C(F)(F)F)nc1-c1ccc(C(C)N2C(=O)C(C)Cn3nc(-c4c(OC)ncnc4C4CC4)nc32)cc1` (stereo not shown) [Example 384, 2-(4-cyclopropyl-6-methoxypyrimidin-5-yl)-4-(1-(4-(1-ethyl-4-(trifluoromethyl)-1H-imidazol-2-yl)phenyl)ethyl)-6-methyl-6,7-dihydro-[1,2,4]triazolo[1,5-a]pyrimidin-5(4H)-one], the IC50 was below 100 nM.

For the compound `Cn1cc(C(F)(F)F)nc1-c1ccc(Cn2c(=O)ccn3nc(-c4c(OC(F)F)ncnc4C4CC4)nc23)cc1F` [Example 385, 2-(4-cyclopropyl-6-(difluoromethoxy)pyrimidin-5-yl)-4-(3-fluoro-4-(1-methyl-4-(trifluoromethyl)-1H-imidazol-2-yl)benzyl)-[1,2,4]triazolo[1,5-a]pyrimidin-5(4H)-one], the IC50 was below 100 nM. To `COc1ncnc(C2CC2)c1-c1nc2n(Cc3ccc(-c4nc(C(F)(F)F)cn4C)c(F)c3)c(=O)ccn2n1` [Example 386, 2-(4-cyclopropyl-6-methoxypyrimidin-5-yl)-4-(3-fluoro-4-(1-methyl-4-(trifluoromethyl)-1H-imidazol-2-yl)benzyl)-[1,2,4]triazolo[1,5-a]pyrimidin-5(4H)-one] belongs below 100 nM; to `COc1ncnc(C2CC2)c1-c1cc2n(n1)CCCC2Nc1ccc(-c2nc(C(F)(F)F)cn2CCF)cc1` (stereo not shown) [Example 387, 2-(4-cyclopropyl-6-methoxypyrimidin-5-yl)-N-(4-(1-(2-fluoroethyl)-4-(trifluoromethyl)-1H-imidazol-2-yl)phenyl)-4,5,6,7-tetrahydropyrazolo[1,5-a]pyridin-4-amine], below 100 nM; to `COc1ncnc(C2CC2)c1-c1cc2n(n1)CCCC2Nc1ccc(-c2nc(C(F)(F)F)cn2C)c(F)c1` (stereo not shown) [Example 388, 2-(4-cyclopropyl-6-methoxypyrimidin-5-yl)-N-(3-fluoro-4-(1-methyl-4-(trifluoromethyl)-1H-imidazol-2-yl)phenyl)-4,5,6,7-tetrahydropyrazolo[1,5-a]pyridin-4-amine], below 100 nM. To `[2H]C([2H])([2H])C([2H])([2H])n1cc(C(F)(F)F)nc1-c1ccc(NC2CCCn3nc(-c4c(OC)ncnc4C4CC4)cc32)cc1` (stereo not shown) [Example 389, 2-(4-cyclopropyl-6-methoxypyrimidin-5-yl)-N-(4-(1-(ethyl-d5)-4-(trifluoromethyl)-1H-imidazol-2-yl)phenyl)-4,5,6,7-tetrahydropyrazolo[1,5-a]pyridin-4-amine] belongs below 100 nM; to `CC(CF)n1cc(C(F)(F)F)nc1-c1ccc(NC2CCCn3nc(-c4c(Cl)cnn4C(C)C)cc32)cc1` (stereo not shown) [Example 390, 2-(4-chloro-1-isopropyl-1H-pyrazol-5-yl)-N-(4-(1-(1-fluoropropan-2-yl)-4-(trifluoromethyl)-1H-imidazol-2-yl)phenyl)-4,5,6,7-tetrahydropyrazolo[1,5-a]pyridin-4-amine], below 100 nM. To `CCn1cc(C(F)(F)F)nc1-c1ccc(Cn2c(=O)c(C)cn3nc(-c4c(OC)ncnc4C4CC4)nc23)cc1` [Example 391, 2-(4-cyclopropyl-6-methoxypyrimidin-5-yl)-4-(4-(1-ethyl-4-(trifluoromethyl)-1H-imidazol-2-yl)benzyl)-6-methyl-[1,2,4]triazolo[1,5-α]pyrimidin-5(4H)-one] belongs below 100 nM; to `CCn1cc(C(F)(F)F)nc1-c1ccc(Cn2c(=O)c(C)cn3nc(-c4c(OC(F)F)ncnc4C4CC4)nc23)cc1` [Example 392, 2-(4-cyclopropyl-6-(difluoromethoxy)pyrimidin-5-yl)-4-(4-(1-ethyl-4-(trifluoromethyl)-1H-imidazol-2-yl)benzyl)-6-methyl-[1,2,4]triazolo[1,5-a]pyrimidin-5(4H)-one], below 100 nM. For `COc1ncnc(C2CC2)c1-c1cc2n(n1)CCC[C@@H]2Oc1ccc(-c2nc(C(F)(F)F)cn2C(C)CF)cc1` (stereo partly drawn) [Example 393, (4S)-2-(4-cyclopropyl-6-methoxypyrimidin-5-yl)-4-(4-(1-(1-fluoropropan-2-yl)-4-(trifluoromethyl)-1H-imidazol-2-yl)phenoxy)-4,5,6,7-tetrahydropyrazolo[1,5-α]pyridine], the IC50 was below 100 nM.
